PMC11456916, “A screen for cell envelope stress uncovers an inhibitor of prolipoprotein diacylglyceryl transferase, Lgt, in Escherichiacoli” (iScience, 2024)
Entries after “also recorded” stand apart in the source; their conditions may differ. Read-outs that look alike come from different tables or passages of the source.

Tests used:
E. coli BW25113 = test: MIC assay, wild-type E. coli with or without SPR741; format: cell-based
Experimental: (§1) We next sought to determine whether we could achieve growth inhibition of wild-type E. coli using MAC-0452936 and an antibiotic adjuvant. […] To that end, we determined the MIC of MAC-0452936 against wild-type E. coli in the presence and absence of a sub-MIC concentration of SPR741 (Figure S8B). […] We leveraged this combination to characterize the spectrum of activity of MAC-0452936 against a panel of Gram-negative pathogens (Table 2). In the presence of 8 μg/mL SPR741, we observed MAC-0452936 activity against the clinical E. coli isolates C0244 and CFT073 at 2 μg/mL as well as against Salmonella Typhimurium SL1344 at 4 μg/mL.
(§2) For MIC assays, cultures of bacteria were grown in LB broth. Overnight cultures were diluted (1:100) into fresh LB media and grown to the mid-log phase of growth (OD600 ∼0.5). Subcultures were then normalized to an OD600 of 0.1, and diluted (1:5000) into assay media. Assay plates were then incubated for 18 h at 37°C, then OD600 was measured using a Biotek Neo plate reader.

A. baumannii ATCC17978 = test: MIC assay with or without SPR741, A. baumannii; format: cell-based, Acinetobacter baumannii; conditions: for MIC: Acinetobacter baumannii
Experimental: as §1, §2

S. aureus MRSA JE2 = test: MIC assay with or without SPR741, S. aureus; format: cell-based, Staphylococcus aureus; conditions: for MIC: Staphylococcus aureus, MRSA
Experimental: as §1, §2

[1] = tested on: E. coli ΔlgtΔtolC-pore pCHAP9231; test: MIC with arabinose-titrated lgt expression; format: cell-based; conditions: lgt expression driven solely by arabinose from pCHAP9231
Excerpt: We next turned to genetic approaches to confirm the mechanism of action of MAC-0452936. […] To that end, we screened the E. coli CRISPRi collection in the ΔtolC-pore genetic background with a sub-inhibitory concentration of MAC-0452936 and measured the fitness of all 356 CRISPRi mutants (Figure 4C and Data S4). […] Depletion of Lgt by CRISPRi provided supporting evidence that MAC-0452936 targeted Lgt in E. coli; however, we sought to confirm this observation using a parallel genetic approach. We hypothesized that MAC-0452936 potency would also be affected by high-copy expression of lgt. To that end, we introduced either an arabinose inducible copy of lgt supplied on the pCHAP9231 plasmid[48] or the pBAD19s plasmid as a control into E. coli ΔtolC-pore and tested the potency of MAC-0452936 (Figure 4E). Induction of lgt expression with arabinose suppressed the activity of MAC-0452936 by about 8-fold. […] To test this hypothesis, we constructed E. coli ΔlgtΔtolC-pore with pCHAP9231[48] so that lgt expression was driven solely by arabinose from the plasmid. […] To test this observation with MAC-0452936, we introduced an lpp deletion into our screening strain E. coli ΔtolC-pore and assessed the activity of our Lgt inhibitor in this mutant background. […]

human red blood cells = test: Haemolysis assay; format: cell-based; conditions: 37°C, 1 h
Experimental: To determine the haemolytic activity and cytotoxicity of MAC-0452936, pooled human blood and HEK293t cells were used, respectively. Fresh pooled human blood for haemolytic assay was acquired from […] Technologies, whilst, HEK293t cells were originally acquired from ATCC (Cat# CRL-3216) and were regularly grown in […] (DMEM) with 10% fetal bovine serum (FBS), L-glutamine and incubated at 37°C. Cell lines are regularly tested for mycoplasma contamination.
Haemolytic activity of MAC-0452936 was assessed as described previously. Fresh human blood (10 mL, Stem Cell Technologies, USA) was centrifuged at 4,000 rpm for 10 min. The supernatant was discarded, and the pellet was rinsed three times with 1× PBS. Subsequently, the pellet was diluted 1:5 (v/v) in 1× PBS and RBC suspensions (0.5 mL each) were incubated with varying concentrations of test compounds at 37°C for 1 h. Following this, the cell suspensions were centrifuged at 5,000g for 10 min and the supernatant was meticulously collected without disturbing the pellet. Hemolysis was assessed by measuring the absorbance of the released hemoglobin in the supernatant at 540 nm using a spectrophotometer. Triton X-100 (0.1%) was used as the positive control causing 100 per cent hemolysis. All experiments were performed in triplicates.

COc1ccc(C(=O)O/N=C(\c2cccs2)C(C)(C)C)cc1 [MAC-0452936, (Z)-2-Pivaloylthiophene O-(4-methoxybenzoyl) oxime]
MIC (E. coli BW25113; Escherichia coli, BW25113, read-out: MIC, E. coli BW25113 + 0 μg/mL SPR741): > 64 µg/mL | activity against wild-type (WT) E. coli (E. coli BW25113; growth inhibition, no SPR741, in words): inactive | MIC, A. baumannii ATCC17978 + 8 μg/mL SPR741 (A. baumannii ATCC17978; 8 μg/mL SPR741): did not observe MAC-0452936 activity | MIC (A. baumannii ATCC17978; ATCC17978, read-out: MIC, A. baumannii ATCC17978 + 8 μg/mL SPR741): > 64 µg/mL | MIC (A. baumannii ATCC17978; ATCC17978, read-out: MIC, A. baumannii ATCC17978 + 0 μg/mL SPR741): > 64 µg/mL | MIC, S. aureus MRSA JE2 + 8 μg/mL SPR741 (S. aureus MRSA JE2; 8 μg/mL SPR741): did not observe MAC-0452936 activity | MIC (S. aureus MRSA JE2; read-out: MIC, S. aureus MRSA JE2 + 0 μg/mL SPR741): > 64 µg/mL | MIC (S. aureus MRSA JE2; read-out: MIC, S. aureus MRSA JE2 + 8 μg/mL SPR741): > 64 µg/mL | change of MIC with increasing arabinose concentrations [1]: dose-dependent increase in the MIC; also recorded: increase with increasing | hemolysis of human red blood cells (human red blood cells): did not observe hemolysis
